# Reference: PMC9886271 (Drug metabolism and pharmacokinetics, 2022)
# Entries after “also recorded” stand apart in the source; their conditions may differ. Where a name gives a salt, the structure may show the parent alone.
# Columns and labels:
# Swiss mice = details: intraperitoneal (i.p.); cited from earlier work
# [1] = Tissue distribution after single i.v. injection; details: for rank order of the extent of exposure of the organs to the parent drug: i.v. administration; for Metabolite Tissue AUC0–8h, Brain / Metabolite Tissue AUC0–8h, Heart / Metabolite Tissue AUC0–8h, Kidney / Metabolite Tissue AUC0–8h, Liver / Metabolite Tissue AUC0–8h, Lung / Metabolite Tissue AUC0–8h, Spleen: after 2.0 mg/kg i.v. of the parent drug; for rank order of the extent of exposure of the organs to the metabolite: after i.v. parent drug
# [2] = In vivo toxicity, Up-and-Down method, single i.v. dose via tail vein; details: male, CD-1, mouse, iv
# [3] = male, CD-1, mouse, pH 7.4
# [4] = tested on: mouse liver microsomes (MLM); details: MLM; for Vmax, best fit value: formation of EDDP/d6-EDDP, mean ± S.E.
# [5] = human, pH 7.4
# [6] = tested on: human liver microsomes (HLM); details: HLM; for Vmax, best fit value: formation of EDDP/d6-EDDP, mean ± S.E.
# [7] = tested on: postoperative mechanical hypersensitivity in mice; assay: Postoperative pain model; details: post-operative treatment, 3 mg/kg i.p., once daily for 4 days; for effect on postoperative mechanical hypersensitivity: 3 mg/kg
# [8] = Plasma pharmacokinetics after single i.v. injection; details: for AUC0–8h (metabolite) / Cmax (metabolite) / Tmax (metabolite): metabolite in plasma after 2.0 mg/kg i.v. of the parent drug
SMILES,rank order of the extent of exposure of the organs to the parent drug [1],"Vmax, best fit value [4]","Vmax, best fit value [6]",effect on postoperative mechanical hypersensitivity [7],"Metabolite Tissue AUC0–8h, Brain [1]","Metabolite Tissue AUC0–8h, Heart [1] [ng·h/g]","Metabolite Tissue AUC0–8h, Kidney [1] [ng·h/g]","Metabolite Tissue AUC0–8h, Liver [1] [ng·h/g]","Metabolite Tissue AUC0–8h, Lung [1] [ng·h/g]","Metabolite Tissue AUC0–8h, Spleen [1] [ng·h/g]",rank order of the extent of exposure of the organs to the metabolite [1],AUC0–8h (metabolite) [8] [ng·h/mL],Cmax (metabolite) [8] [ng/mL],Tmax (metabolite) [8] [min],also measured
"CCC(=O)C(CC(C)N(C)C)(c1ccccc1)c1ccccc1 (racemic) [methadone, (±)-Methadone hydrochloride, reference compound]",kidneys ≈ lungs > spleen > liver > heart > brain,2631 ± 121 pmol·min^−1·mg of protein^−1,1116 ± 17 pmol·min^−1·mg of protein^−1,completely ineffective,–,–,–,–,–,–,–,–,–,–,LD50 (Swiss mice): 41 mg/kg; LD50 at 20 min [2]: 11.6 mg/kg; Km at 10 min [3]: 53.5 ± 5.1 µM; Km at 20 min [5]: 82.9 ± 3.7 µM; effect on postoperative mechanical hypersensitivity ([7]; listed as Methadone): unable to reduce the postoperative mechanical hypersensitivity
"[2H]C([2H])([2H])CC(=O)C(CC(C)N(C([2H])([2H])[2H])C([2H])([2H])[2H])(c1ccccc1)c1ccccc1 (racemic) [d9-methadone, (±)-d9-methadone]",lungs > kidneys ≈ liver > spleen > heart > brain,1033 ± 45 pmol·min^−1·mg of protein^−1,438 ± 27 pmol·min^−1·mg of protein^−1,alleviated hypersensitivity after each systemic injection; also recorded: significantly relieved postoperative mechanical hypersensitivity,–,–,–,–,–,–,–,–,–,–,deuteration effect on Vmax (HVmax/DVmax) [4]: 2.5; deuteration effect on Vmax (HVmax/DVmax) [6]: 2.5; development of analgesic tolerance [7]: no development of the apparent analgesic tolerance
[2H]C([2H])([2H])C1CC(c2ccccc2)(c2ccccc2)C(=CC)N1C([2H])([2H])[2H] (stereo not drawn) [d6-EDDP],–,–,–,–,<LLOQ^§,1243 ± 254,1562 ± 207,4375 ± 513,9886 ± 614,411 ± 33,lungs > liver > kidney ≈ heart > spleen,138 ± 25,48 ± 7,19.8 ± 8.4,"concentration of the metabolite in the brain ([1]; after 2.0 mg/kg i.v. d9-methadone, every time point): below the lower limit of quantification; plasma AUC0–8h of d6-EDDP, fold lower than AUC0–8h of EDDP ([8]; after i.v. parent drug): 2 fold; plasma Cmax of d6-EDDP, fold lower than Cmax of EDDP ([8]; after i.v. parent drug): 5 fold"
"CC=C1N(C)C(C)CC1(c1ccccc1)c1ccccc1 (stereo not drawn) [EDDP, 2-ethylidene-1,5-dimethyl-3,3,-diphenylpyrrolidine]",–,–,–,–,8.96 ± 5.26 ng·h/g,2155 ± 144,2815 ± 226,5608 ± 218,9672 ± 856,622 ± 45,lungs > liver > kidney ≈ heart > spleen,257 ± 29,233 ± 28,8.4 ± 6,–
